27 compounds from patent US4800194A, “Acylphosphorotriamides useful as lipid-altering agents” (priority 1986, dated 1989) can be followed below.

Experiment [1] concerns the target T1, pseudocholinesterase (Homo sapiens, UniProt P06276).
T1 construct: a 100 μl aliquot of human plasma; from tissue; host or cells: human plasma (EDTA blood, stored frozen)
The experiment in a line: Inhibition of human plasma pseudocholinesterase (PChE) activity (Test Method 1). The experiment is classed as biochemical. The following applies: 30 min preincubation. The method, then:
(§1) The following method was used to determine the relative inhibition of pseudocholinesterase and acetylcholinesterase by compounds of the present invention.
Plasma (Source of Pseudocholinesterase Enzyme)
Human Plasma was obtained from blood which was collected in ethylenediaminetetraacetic acid (EDTA) treated tubes. Collected plasma was stored frozen at -20° C. until use.
(§2) The buffer/chromogen solution was 0.25 mM 5,5'-dithiobis-[2-nitrobenzoic acid] (chromogen), 50 mM phosphate buffer, pH 7.2. In making up the buffer/chromogen solution and to keep it as colorless as possible, the phosphate buffer was first adjusted to pH 7.1 with NaOH; the chromogen was then added and dissolved; the pH was adjusted to 7.2; and the final volume was adjusted with addition of Milli-Q water. 5,5'-dithiobis-(2-nitrobenzoic acid) was obtained from Sigma Chemicals, St. Louis, MO.
(§3) The substrate solution for the pseudocholinesterase assay was 156 mM S-butyrylthiocholine iodide, and the substrate solution for the acetylcholinesterase assay was 156 mM S-acetylthiocholine iodide. Both substrate compounds were obtained from Sigma Chemicals.
(§4) Test Compound Stock Solutions
(§5) Solutions of all test compounds were made up at 2 μM, 20 μM, and 200 μM concentrations (in 0.9% saline solution) except as noted where lower concentrations were necessary because of decreased solubility of the compound in saline solution.
Pseudocholinesterase (PChE) Assay
In three separate tubes, a 100 μl aliquot of either 0.9% saline solution, 2 μM test compound solution, or 20 μM test compound solution was mixed with a 100 μl aliquot of human plasma, and the tubes were placed in a 35° C. water bath. Four cuvettes, each containing 3 ml buffer/chromogen solution mixed with 100 μl substrate solution (156 mM S-butyrylthiocholine iodide), had been placed in a heated cuvette holder (35° C.) in a Beckman DU-8B Spectrophotometer (Beckman Instruments). After the temperature of the buffer/chromogen/substrate solution in the cuvette had equilibrated for about 10 minutes, and after 0 or 30 minutes incubation of the plasma/test compound solution, a 25 μl aliquot of the plasma/test compound solutions was added to the corresponding cuvettes numbered 2-4. Cuvette #1 remained a blank. After mixing, the net absorbance of each cuvette was determined at 405 nm every 35 seconds for ten readings. From a plot of net absorbance versus time, the initial linear portion of the curve was determined, and a rate of absorbance change per minute was calculated. The positive control (100% PChE activity) was the plasma/saline solution.
(§6) Each compound was tested for its ability to inhibit plasma pseudocholinesterase activity and acetylcholinesterase activity. Because of variation in the time points in the linear portion of the curve, inhibition values below 10-15% and higher than 85-90% are nearly indistinguishable from 0% and 100%, respectively.

The target of experiment [2] is T2, acetylcholinesterase (Homo sapiens, UniProt P22303).
T2 construct: The supernatant (lysed RBC's) was stored frozen; from tissue; host or cells: lysed human red blood cells (supernatant of hypotonic lysis)
T2 sequence (P22303 other isoform, or with tags, fused parts or gaps): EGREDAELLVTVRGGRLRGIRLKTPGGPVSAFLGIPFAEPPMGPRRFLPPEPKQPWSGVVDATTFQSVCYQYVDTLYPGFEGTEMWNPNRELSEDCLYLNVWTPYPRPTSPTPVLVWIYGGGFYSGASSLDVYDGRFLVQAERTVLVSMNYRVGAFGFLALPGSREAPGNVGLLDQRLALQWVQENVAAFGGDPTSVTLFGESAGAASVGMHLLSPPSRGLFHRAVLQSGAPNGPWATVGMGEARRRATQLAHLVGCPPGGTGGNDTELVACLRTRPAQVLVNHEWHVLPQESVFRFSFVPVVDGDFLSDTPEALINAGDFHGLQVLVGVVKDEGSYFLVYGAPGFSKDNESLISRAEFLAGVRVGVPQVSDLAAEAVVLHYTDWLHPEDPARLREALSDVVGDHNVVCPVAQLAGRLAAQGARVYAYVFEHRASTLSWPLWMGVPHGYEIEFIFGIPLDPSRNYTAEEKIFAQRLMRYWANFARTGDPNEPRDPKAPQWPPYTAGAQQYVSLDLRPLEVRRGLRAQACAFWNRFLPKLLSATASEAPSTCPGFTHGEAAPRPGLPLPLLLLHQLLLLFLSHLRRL
Briefly: Inhibition of acetylcholinesterase (AChE) activity of lysed human red blood cells (Test Method 1). The experiment is classed as biochemical. The following applies: 60 min preincubation. As to the method: as §1
Lysed Red Blood Cells (RBC's) (Source of Acetylcholinesterase Enzyme)
Human blood which was collected in EDTA treated tubes was centrifuged at 1500×g for 10 min. at 4° C. One volume of chilled 0.9% saline solution was gently mixed with one volume of packed RBC's. One volume of this suspension was then washed three times with ten volumes of chilled 0.9% saline solution (4° C.). Each wash was centrifuged at 1500×g for 10 min. at 4° C. and supernatant was discarded. After the last wash the supernatant was replaced with deionized, distilled water (treated by Milli-Q apparatus, Millipore Corp., Bedford, MA) (4° C.). After 15 min. at 4° C. the suspension was centrifuged at 1500×g for 10 min. at 4° C. The supernatant (lysed RBC's) was stored frozen at -20° C. until use.
as §2, §3, §4, §5
Acetylcholinesterase (AChE) Assay
The acetylcholinesterase assay was performed identically to the pseudocholinesterase assay with the following exceptions. The concentrations of the stock solutions of test compounds were 20 μM and 200 μM, instead of 2 μM and 20 μM, and the substrate solution was 156 mM S-acetylthiocholine iodide instead of S-butyrylthiocholine iodide. The lysed RBC's/test compound solution was incubated for 0 and 60 minutes instead of 0 and 30 minutes before being added to the cuvette containing the buffer/chromogen/substrate solution. From a plot of net absorbance versus time there was an initial period before the curve reached a steady linear rate. From this linear portion of the curve a rate of absorbance change per minute was calculated.
as §6

T1 sequence (P06276 29-602): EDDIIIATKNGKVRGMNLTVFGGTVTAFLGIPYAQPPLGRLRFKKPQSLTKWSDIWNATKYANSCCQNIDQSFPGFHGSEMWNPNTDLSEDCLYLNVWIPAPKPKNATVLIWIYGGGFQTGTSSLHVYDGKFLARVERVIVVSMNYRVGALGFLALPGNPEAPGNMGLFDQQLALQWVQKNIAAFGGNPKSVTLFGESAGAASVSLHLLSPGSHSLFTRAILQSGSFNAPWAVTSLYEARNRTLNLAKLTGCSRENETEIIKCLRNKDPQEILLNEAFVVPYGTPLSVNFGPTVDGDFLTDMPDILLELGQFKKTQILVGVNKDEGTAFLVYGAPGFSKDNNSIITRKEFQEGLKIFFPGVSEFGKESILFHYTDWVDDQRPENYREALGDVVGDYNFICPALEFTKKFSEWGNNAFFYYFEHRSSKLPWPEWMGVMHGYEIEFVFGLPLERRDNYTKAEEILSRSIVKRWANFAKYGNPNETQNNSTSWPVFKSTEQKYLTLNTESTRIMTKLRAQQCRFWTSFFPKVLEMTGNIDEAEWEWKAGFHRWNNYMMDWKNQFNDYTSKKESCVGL

For `NP(N)(=O)NC(=O)c1ccccc1` [Test Compound 1], the inhibition at 1 µM in experiment [1] was found to be 92.7%. Moreover, the figures for the inhibition at 10 µM in experiment [1] (10 μM) and in experiment [2] were 99.1% and 4.1%, respectively. In addition, the inhibition at 100 µM in experiment [2] was 37.3%.
As for `NP(N)(=O)NC(=O)c1cccnc1` [Test Compound 2], in experiment [1], the inhibition at 1 µM came out at 84.1%. Further, the inhibition at 10 µM in experiment [1] (10 μM) is 97.6%. Moreover, in experiment [2], the inhibition at 10 µM was -1.9% and the inhibition at 100 µM was 70.7%.
Regarding `NP(N)(=O)NC(=O)c1ccc([N+](=O)[O-])cc1` [Test Compound 3], in experiment [1], the inhibition at 1 µM came to 90.4%. The inhibition at 10 µM in experiment [1] (10 μM) is 99%. Also, in experiment [2], the inhibition at 10 µM stood at 64.3% and the inhibition at 100 µM amounted to 86.9%.
Take `Nc1ccc(C(=O)NP(N)(N)=O)cc1` [Test Compound 5]: the inhibition at 1 µM in experiment [1] was found to be 57.7%. For the same compound, in experiment [1] (10 μM), the inhibition at 10 µM was 98.2%. Further, in experiment [2], the inhibition at 10 µM stood at 1.8% and the inhibition at 100 µM worked out at 32.1%.
The corresponding values for `NP(N)(=O)NC(=O)c1ccc(Cl)cc1` [Test Compound 6] are 87.7%, 98.7%, 5.4% and 86.5%.
On the same counts, the results for `NP(N)(=O)NC(=O)c1cccc([N+](=O)[O-])c1` [Test Compound 7] are 65.6%, 98.9%, 23.9% and 86.6%.
Regarding `COc1ccc(C(=O)NP(N)(N)=O)cc1` [Test Compound 8], the inhibition at 1 µM in experiment [1] was 83.4%. Further, the values for the inhibition at 10 µM in experiment [1] (10 μM) and in experiment [2] were 96.3% and 3%, respectively. In addition, the inhibition at 100 µM in experiment [2] was determined as 34.2%.
The corresponding values for `Cc1ccc(C(=O)NP(N)(N)=O)cc1` [Test Compound 9] are 73.7%, 98.1%, 9.6% and 46%.
On the same counts, the results for `Cc1ccccc1C(=O)NP(N)(N)=O` [Test Compound 10] are 21.4%, 89.2%, 8.6% and 44.5%.
The corresponding values for `NP(N)(=O)NC(=O)c1ccccc1Cl` [Test Compound 11] are 49.5%, 98.5%, 32.1% and 87.3%.
Consider `N#Cc1ccc(C(=O)NP(N)(N)=O)cc1` [Test Compound 12], for which the inhibition at 1 µM in experiment [1] worked out at 97.4%. The figures for the inhibition at 10 µM in experiment [1] (10 μM) and in experiment [2] were 98.8% and 34.4%, respectively. Also, the inhibition at 100 µM in experiment [2] stood at 85.5%.
`NP(N)(=O)NC(=O)c1cccc(F)c1` [Test Compound 13]: the inhibition at 1 µM in experiment [1] amounted to 80.2%. Besides, the inhibition at 10 µM in experiment [1] (10 μM) came out at 98.8%. Moreover, in experiment [2], the inhibition at 10 µM is -4% and the inhibition at 100 µM was 41.3%.
`NP(N)(=O)NC(=O)c1cccc(C(F)(F)F)c1` [Test Compound 14]: the inhibition at 1 µM in experiment [1] came to 25%. The figures for the inhibition at 10 µM in experiment [1] (10 μM) and in experiment [2] were 94.1% and 25.7%, respectively. In addition, in experiment [2], the inhibition at 100 µM amounted to 85.9%.
The corresponding values for `NP(N)(=O)NC(=O)c1ccccc1F` [Test Compound 15] are 97.4%, 99.3%, 14.7% and 82.1%.
The corresponding values for `CC(C)(C)c1ccc(C(=O)NP(N)(N)=O)cc1` [Test Compound 16] are 46.3%, 97.9%, 3.1% and 38.7%.
Regarding `NP(N)(=O)NC(=O)c1ccc2ccccc2c1` [Test Compound 17], in experiment [1] (0.5 μM (footnote a)), the inhibition at 0.5 µM was found to be 27.4%. Moreover, the values for the inhibition at 5 µM in experiment [1] (5.0 μM (footnote a)) and in experiment [2] (5 μM (footnote a)) were 95.1% and 16%, respectively. Besides, the inhibition at 50 µM in experiment [2] (50 μM (footnote a)) worked out at 87.2%.
For `NP(N)(=O)NC(=O)Cc1ccccc1` [Test Compound 18], the inhibition at 1 µM in experiment [1] amounted to 10.7%. Further, the inhibition at 10 µM in experiment [1] (10 μM) worked out at 61.3%; in experiment [2], 17.1%. Besides, the inhibition at 100 µM in experiment [2] was determined as 85.2%.
In the case of `NP(N)(=O)NC(=O)c1cccc(Oc2ccccc2)c1` [Test Compound 19], in experiment [1], the inhibition at 1 µM worked out at 63.7%. Further, the inhibition at 10 µM in experiment [1] (10 μM) amounted to 98.3%. Also, in experiment [2], the inhibition at 10 µM was found to be 15.8% and the inhibition at 100 µM was 64.2%.
For `CS(=O)(=O)c1ccc(C(=O)NP(N)(N)=O)cc1` [Test Compound 20, N-(diaminophosphinyl)-4-(methylsulfonyl)benzamide], the inhibition at 1 µM in experiment [1] was 92.9%. The inhibition at 10 µM in experiment [1] (10 μM) worked out at 98.5%. For the same compound, in experiment [2], the inhibition at 10 µM is 20.5% and the inhibition at 100 µM is 86.4%.
On the same counts, the results for `NP(N)(=O)NC(=O)c1c(F)cccc1F` [Test Compound 21] are 74.4%, 98.7%, 51.1% and 93.7%.
With `CCCCOc1ccc(C(=O)NP(N)(N)=O)cc1` [Test Compound 22], the inhibition at 1 µM in experiment [1] is 28.8%. Moreover, the inhibition at 10 µM in experiment [1] (10 μM) stood at 94.9%. Further, in experiment [2], the inhibition at 10 µM came to 12.6% and the inhibition at 100 µM was 57.4%.
On the same counts, the results for `NP(N)(=O)NC(=O)C=Cc1ccccc1` [Test Compound 23] are 11.5%, 73.2%, 6.6% and 54.8%.
For `NP(N)(=O)NC(=O)c1ccc(-c2ccccc2)cc1` [Test Compound 24], the inhibition at 0.25 µM in experiment [1] (0.25 μM (footnote b)) was 5.3%. Also, the inhibition at 2.5 µM in experiment [1] (2.5 μM (footnote b)) was 66.6%; in experiment [2] (2.5 μM (footnote b)) it was -3.7%. Further, the inhibition at 25 µM in experiment [2] (25 μM (footnote b)) came out at 34.8%.
For `Nc1ccc(S(=O)(=O)Nc2cccc(C(=O)NP(N)(N)=O)c2)cc1` [Test Compound 25], in experiment [1], the inhibition at 1 µM was found to be 97.2%. The figures for the inhibition at 10 µM in experiment [1] (10 μM) and in experiment [2] were 99% and 62.2%, respectively. Also, the inhibition at 100 µM in experiment [2] was 88.5%.
On to `NP(N)(=O)NC(=O)c1ccco1` [Test Compound 26], for which the inhibition at 1 µM in experiment [1] was 91%. Also, the inhibition at 10 µM in experiment [1] (10 μM) is 98.7%. In addition, in experiment [2], the inhibition at 10 µM worked out at 7.7% and the inhibition at 100 µM worked out at 73%.
For `CC(C)NP(N)(=O)NC(=O)c1ccc(F)cc1` (stereo not drawn) [Test Compound 27, N-[amino-(1-methylethylamino)phosphinyl]-4-fluorobenzamide], the inhibition at 10 µM in experiment [1] (10 μM (footnote c)) is 8.7%. Besides, the inhibition at 100 µM in experiment [1] (100 μM (footnote c)) is 43.3%. In addition, the inhibition at 50 µM in experiment [2] (50 μM (footnote c)) turned out to be 5.8%. In experiment [2] (500 μM (footnote c)), the inhibition at 500 µM was found to be 32.2%.
With `NP(N)(=O)NC(=O)c1ccc([N+](=O)[O-])o1` [Test Compound 28], in experiment [1], the inhibition at 1 µM is 21%. Moreover, the inhibition at 10 µM in experiment [1] (10 μM) was 90.8%. Moreover, in experiment [2], the inhibition at 10 µM was 46.9% and the inhibition at 100 µM came out at 93.1%.
